Measurements published in US20170065564A1, “BIS-CYCLIC GUANIDINE COMPOUND COMPOSITIONS, METHODS OF USE AND TREATMENT THEREOF” (University of South Florida, priority 2014, published 2017).

Experiments:
P. aeruginosa [1] = experiment: MIC reanalysis in the presence of the efflux inhibitor reserpine; assay type: cell-based, Pseudomonas aeruginosa
Description: (§1) Given the minor variations observed in MIC for three of the Gram-negative organisms, and that these particular bacteria are renowned for efflux detoxification of antibacterial agents, we hypothesized that the differences observed likely relate to variation in efflux pump activity between strains. […] The effects observed appear to be universal, regardless of strain or compound tested. […] It should be noted that the data presented herein represents a worst-case scenario. […] Similar data was returned for all front runner agents, against all 10 isolates of the three Gram-negative organisms (data not shown). These findings support the hypothesis that inherent efflux mechanisms of certain Gram-negative organisms result in MIC variations for the lead bis-cyclic guanidines between clinical isolates.

K. pneumoniae = experiment: as above; assay type: cell-based, Klebsiella pneumoniae; conditions: K. pneumoniae strain 1441; with 100 μM of reserpine
Description: as §1

P. aeruginosa [2] = assay type: cell-based, Pseudomonas aeruginosa; conditions: 8 passages, concentration doubled each day
Procedure: ESKAPE pathogens were grown overnight in liquid media at 37° C. These cultures were then diluted 1:100 in fresh media, and seeded into a 96-well plate. Lead bis-cyclic guanidines or control agents were added to respective wells at half MIC concentrations. […] These were then grown overnight, and the procedure repeated for a total of eight days.

E. cloacae = experiment: MIC reanalysis in the presence of the efflux inhibitor reserpine; assay type: cell-based, Enterobacter cloacae; conditions: E. cloacae strain 1446; with 100 μM of reserpine
Description: as §1

Question: Which “effect on growth, combined with reserpine” value (P. aeruginosa [1]; P. aeruginosa isolate 1420, 2 μM compound plus 100 μM reserpine) does the source give for `CCCCCCCN1C(=N)N(CCCC[C@H]2CNC(=N)N2CCc2cccc(C(F)(F)F)c2)C[C@@H]1CCCC` [Compound 1] here?
Answer: The value was “strongly inhibited growth”.

Question: And the “effect on growth, agent alone” value (P. aeruginosa [1]; P. aeruginosa isolate 1420, 100 μM of reserpine or 2 μM of compound 1 individually)?
Answer: The value was “no effect”.

Question: Which results are given for `CCCCCCCN1C(=N)N(CCCC[C@H]2CNC(=N)N2CCCCC2CCCCC2)C[C@@H]1CC1CCCCC1` [Compound 16]?
Answer: effect on growth, in combination with reserpine (K. pneumoniae): complete inhibition of growth; increase in MIC after serial passage (P. aeruginosa [2]): 8 fold

Question: For `CCCCCCCN1C(=N)N(CCCC[C@H]2CNC(=N)N2CCc2cccc(C(F)(F)F)c2)C[C@@H]1CC1CCCCC1` [Compound 7], which “effect on growth, in combination with reserpine” value (E. cloacae) is on record?
Answer: The value was “complete inhibition of growth”.

Question: Which “increase in MIC after serial passage” value (P. aeruginosa [2]) does the source give for `CCCCCCCN1C(=N)N(CCCC[C@H]2CNC(=N)N2CCC23CC4CC(CC(C4)C2)C3)C[C@@H]1CCCC` [Compound 19] here?
Answer: The value was 8 fold.

Question: And the “effect on growth, paired with reserpine” value (P. aeruginosa [1]; P. aeruginosa strain 1414, with reserpine)?
Answer: Its value is “complete inhibition of growth”.
